Numbered stars: 1 amine (or outer) side, 2 acyl side, 3 side chain; on linkers, the order of the positions; unused ones are H or OH. Bridge positions count the residues as written; N and C are the ends. Square brackets hold non-standard residues; d marks the D form. Peptide text beside a SMILES is read from it. * marks the point of attachment. Pro(5R-Ph) = O=C(O)[C@@H]1CC[C@H](c2ccccc2)N1; Benzoyl(3,5-(OH)2) = O=C(c1cc(O)cc(O)c1)*; Benzoyl(4-CF3) = O=C(c1ccc(C(F)(F)F)cc1)*; Phenylacetyl(4-Cl) = O=C(Cc1ccc(Cl)cc1)*; NH(CH2CH2O)2CH2CH2NH2 = NCCOCCOCCN*; X2 = O=C(C1(N[*:1])CCC(O)CC1)[*:2]; 2Naphthoyl = O=C(c1ccc2ccccc2c1)*; Hydrocinnamoyl = O=C(CCc1ccccc1)*; dPen = CC(C)(S)[C@@H](N)C(=O)O; dTle = CC(C)(C)[C@@H](N)C(=O)O; Suc = O=C(CCC(=O)[*:2])[*:1]; Carboxymethyl = O=C(O)C*; Isobutyryl = CC(C)C(=O)*; Pentanoyl = CCCCC(=O)*; X4 = O=C(c1ccc(Br)o1)*; Sar = CNCC(=O)O
Molecular target: αvβ3 integrin (Homo sapiens, UniProt P05106+P06756)
Sequence (P06756 31-889 limits assumed): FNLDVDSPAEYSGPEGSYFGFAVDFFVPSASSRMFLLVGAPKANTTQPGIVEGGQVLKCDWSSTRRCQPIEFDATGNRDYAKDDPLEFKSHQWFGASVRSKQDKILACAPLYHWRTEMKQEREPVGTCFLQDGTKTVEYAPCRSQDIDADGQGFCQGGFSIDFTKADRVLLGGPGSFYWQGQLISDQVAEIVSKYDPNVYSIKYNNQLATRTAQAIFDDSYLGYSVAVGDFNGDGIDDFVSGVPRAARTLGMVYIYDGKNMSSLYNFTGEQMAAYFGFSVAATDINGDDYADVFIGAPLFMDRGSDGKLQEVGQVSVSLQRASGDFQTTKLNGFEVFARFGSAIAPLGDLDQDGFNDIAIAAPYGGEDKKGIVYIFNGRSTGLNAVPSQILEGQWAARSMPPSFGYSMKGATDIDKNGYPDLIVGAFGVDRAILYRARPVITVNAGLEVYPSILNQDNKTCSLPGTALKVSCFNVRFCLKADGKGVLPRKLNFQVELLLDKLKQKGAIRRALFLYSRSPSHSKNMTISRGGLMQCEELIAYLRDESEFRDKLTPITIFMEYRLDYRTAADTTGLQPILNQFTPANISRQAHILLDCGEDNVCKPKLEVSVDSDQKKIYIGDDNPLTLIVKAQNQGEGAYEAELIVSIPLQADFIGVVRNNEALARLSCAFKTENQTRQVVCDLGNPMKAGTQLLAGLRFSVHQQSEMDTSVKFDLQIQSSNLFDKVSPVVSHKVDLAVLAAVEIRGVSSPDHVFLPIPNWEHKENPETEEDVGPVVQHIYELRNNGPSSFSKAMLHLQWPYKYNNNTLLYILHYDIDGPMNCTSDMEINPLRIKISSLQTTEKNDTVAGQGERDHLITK
Sequence (P06756 891-1048 partner limits assumed): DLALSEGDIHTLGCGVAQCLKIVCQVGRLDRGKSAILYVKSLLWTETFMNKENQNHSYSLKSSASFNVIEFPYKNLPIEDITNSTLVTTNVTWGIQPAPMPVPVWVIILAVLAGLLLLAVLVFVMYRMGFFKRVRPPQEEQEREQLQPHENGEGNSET
Sequence (P05106 27-788): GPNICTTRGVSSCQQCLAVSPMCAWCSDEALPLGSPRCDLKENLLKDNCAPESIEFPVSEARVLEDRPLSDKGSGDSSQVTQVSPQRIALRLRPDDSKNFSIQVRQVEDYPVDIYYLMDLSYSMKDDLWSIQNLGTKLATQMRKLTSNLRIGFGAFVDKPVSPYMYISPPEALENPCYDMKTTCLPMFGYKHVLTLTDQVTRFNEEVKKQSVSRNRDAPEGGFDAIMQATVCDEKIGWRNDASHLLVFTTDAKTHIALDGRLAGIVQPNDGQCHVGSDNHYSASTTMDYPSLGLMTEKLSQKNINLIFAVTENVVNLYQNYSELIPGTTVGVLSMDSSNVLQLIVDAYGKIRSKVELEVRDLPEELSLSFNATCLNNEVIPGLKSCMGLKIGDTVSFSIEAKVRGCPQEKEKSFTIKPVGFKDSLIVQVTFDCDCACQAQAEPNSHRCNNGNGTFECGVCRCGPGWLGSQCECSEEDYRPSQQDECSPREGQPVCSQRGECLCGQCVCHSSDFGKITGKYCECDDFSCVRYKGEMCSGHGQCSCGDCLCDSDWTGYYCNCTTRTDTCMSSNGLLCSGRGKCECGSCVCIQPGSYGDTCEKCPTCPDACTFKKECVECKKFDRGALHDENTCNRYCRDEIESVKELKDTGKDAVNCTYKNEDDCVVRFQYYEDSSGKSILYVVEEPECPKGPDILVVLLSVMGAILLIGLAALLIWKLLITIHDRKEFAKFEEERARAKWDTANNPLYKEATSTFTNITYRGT
Test: Inhibition of biotinylated LXW7 binding to αvβ3-K562 cells (flow cytometry)
Set-up: expressed in transfected cells; host or cells: K562 (gift of Dr. Yoshikazu Takada, UC Davis)
Conditions: LXW9-92: inhibiting the binding of biotinylated LXW7 against αvβ3-K562 cells, LXW7 as internal reference
Method: The apparent IC50 were calculated using Graph Prism software (≦www.graphpad.com≧).
The samples were analyzed with Coulter XL-MCL flow cytometry. The histogram and mean fluorescence intensity (MFI) were determined. The apparent Kd, IC50 were calculated using Graph Prism software (≦www.graphpad.com≧).

| IC50 [nM] | SMILES |
| --- | --- |
| > 20000 | CN1CC(=O)N[C@@H](CCCNC(=N)N)C(=O)NCC(=O)N[C@@H](CC(=O)O)C(=O)N[C@@H](Cc2ccc(OCC(=O)O)cc2)C(=O)N[C@H](CC(=O)O)C(=O)N[C@H](C(N)=O)CSSC[C@H](N)C1=O [LXW44, C-Sar-RGD-Bmp-dC] (H-C[Sar]RGDY(Carboxymethyl)[dD]C-NH2; disulfide 1-8) |
| > 20000 | CC[C@@H](C)[C@H]1NC(=O)C2(CCC(O)CC2)NC(=O)[C@H](CC(=O)O)NC(=O)CNC(=O)[C@H](CCCNC(=N)N)NC(=O)CN(C)C(=O)[C@H](N)CSSC[C@H](C(N)=O)NC1=O (stereo partly drawn) [LXW32, c-Sar-RGD-Ahch-i c] (H-[dC][Sar]RGD[X2][dI][dC]-NH2; disulfide 1-8) |
| > 20000 | CN1CC(=O)N[C@@H](CCCNC(=N)N)C(=O)NCC(=O)N[C@@H](CC(=O)O)C(=O)NC2(CCC(O)CC2)C(=O)N[C@H](C(C)(C)C)C(=O)N[C@@H](C(N)=O)CSSC[C@@H](N)C1=O (stereo partly drawn) [LXW33, c-Sar-RGD-Ahch-DBug-c] (H-[dC][Sar]RGD[X2][dTle][dC]-NH2; disulfide 1-8) |
| > 20000 | CN1CC(=O)N[C@@H](CCCNC(=N)N)C(=O)NCC(=O)N[C@@H](CC(=O)O)C(=O)N[C@H](CC(=O)O)C(=O)NC2(CCOCC2)C(=O)N[C@H](C(N)=O)CSSC[C@@H](N)C1=O [LXY38, c-Sar-RGDd-Actp-C] |
| > 20000 | N=C(N)NCCC[C@@H]1NC(=O)CNC(=O)[C@@H](N)CSSC[C@H](C(N)=O)NC(=O)[C@@H]2CC[C@H](c3ccccc3)N2C(=O)[C@@H](CCC(=O)O)NC(=O)[C@H](CC(=O)O)NC(=O)CNC1=O [LXW45, CGRGDe-Ppca-c] (H-CGRGD[dE][Pro(5R-Ph)][dC]-NH2; disulfide 1-8) |

Same assay, conditions: LXW9-92: inhibiting the binding of biotinylated LXW7 against αvβ3-K562 cells; class symbols

| IC50 [nM] | SMILES |
| --- | --- |
| 1000 to 10000 | C#CC[C@H]1NC(=O)[C@@H](CC(=O)O)NC(=O)[C@H](CC(=O)O)NC(=O)CNC(=O)[C@H](CCCNC(=N)N)NC(=O)CNC(=O)[C@H](N)CSSC[C@@H](C(N)=O)NC1=O [LXW40, cGRGDd-DPra-C] |
| 1000 to 10000 | CC(C)[C@H]1NC(=O)[C@@H](CC(=O)O)NC(=O)[C@H](CC(=O)O)NC(=O)CNC(=O)[C@H](CCCNC(=N)N)NC(=O)CNC(=O)[C@H](NC(=O)c2ccc(Br)o2)CSSC[C@H](C(N)=O)NC1=O [LXW90, 5-bromo-2-furoyl-cGRGDdvc] (X4-[dC]GRGD[dD][dV][dC]-NH2; disulfide 1-8) |
| < 1000 | CC(C)[C@H]1NC(=O)[C@@H](CC(=O)O)NC(=O)[C@H](CC(=O)O)NC(=O)CNC(=O)[C@H](CCCNC(=N)N)NC(=O)CNC(=O)[C@H](NC(=O)CCc2ccccc2)CSSC[C@H](C(N)=O)NC1=O [LXW80, 3-phenyl propionyl-cGRGDdvc] (Hydrocinnamoyl-[dC]GRGD[dD][dV][dC]-NH2; disulfide 1-8) |
| > 10000 | N=C(N)NCCC[C@@H]1NC(=O)CNC(=O)[C@@H](N)CSSC[C@@H](C(N)=O)NC(=O)[C@@H](Cc2cscn2)NC(=O)[C@@H](CC(=O)O)NC(=O)[C@H](CC(=O)O)NC(=O)CNC1=O [LXW39, CGRGDd-DTha-C] |
| < 1000 | CC(=O)N[C@@H]1CSSC[C@H](C(N)=O)NC(=O)[C@@H](C(C)C)NC(=O)[C@@H](CC(=O)O)NC(=O)[C@H](CC(=O)O)NC(=O)CNC(=O)[C@H](CCCNC(=N)N)NC(=O)CNC1=O [LXW12, Acetyl-cGRGDdvc] (Ac-[dC]GRGD[dD][dV][dC]-NH2; disulfide 1-8) |
| < 1000 | CC(C)[C@H]1NC(=O)[C@@H](CC(=O)O)NC(=O)[C@H](CC(=O)O)NC(=O)CNC(=O)[C@H](CCCNC(=N)N)NC(=O)CNC(=O)[C@H](NC(=O)c2cc(O)cc(O)c2)CSSC[C@H](C(N)=O)NC1=O [LXW83, 3,5-dihydroxy beznoyl-cGRGDdvc] ({Benzoyl(3,5-(OH)2)}-[dC]GRGD[dD][dV][dC]-NH2; disulfide 1-8) |
| < 1000 | N=C(N)NCCC[C@@H]1NC(=O)CNC(=O)[C@H](N)CSSC[C@H](C(N)=O)NC(=O)[C@@H](Cc2ccsc2)NC(=O)[C@@H](CC(=O)O)NC(=O)[C@H](CC(=O)O)NC(=O)CNC1=O [LXW66, cGRGDd-D3Thi-c] |
| 1000 to 10000 | CC(C)[C@H]1NC(=O)[C@@H](CC(=O)O)NC(=O)[C@H](CC(=O)O)NC(=O)CNC(=O)[C@H](CCCNC(=N)N)NC(=O)CNC(=O)[C@H](NC(=O)Cc2ccc(Cl)cc2)CSSC[C@H](C(N)=O)NC1=O [LXW81, p-chlorophenyl acetyl-cGRGDdvc] ({Phenylacetyl(4-Cl)}-[dC]GRGD[dD][dV][dC]-NH2; disulfide 1-8) |
| 1000 to 10000 | N=C(N)NCCC[C@@H]1NC(=O)CNC(=O)[C@H](N)CSSC[C@H](C(N)=O)NC(=O)[C@@H]2CC[C@H](c3ccccc3)N2C(=O)[C@@H](CCC(=O)O)NC(=O)[C@H](CC(=O)O)NC(=O)CNC1=O [LXW71, cGRGDe-Ppca-c] (H-[dC]GRGD[dE][Pro(5R-Ph)][dC]-NH2; disulfide 1-8) |
| < 1000 | N=C(N)NCCC[C@@H]1NC(=O)CNC(=O)[C@H](N)CSSC[C@H](C(N)=O)NC(=O)[C@@H](Cc2cccs2)NC(=O)[C@@H](CC(=O)O)NC(=O)[C@H](CC(=O)O)NC(=O)CNC1=O [LXW67, cGRGDd-D2Thi-c] |
| 1000 to 10000 | CC(C)[C@H]1NC(=O)[C@@H](CC(=O)O)NC(=O)[C@H](CC(=O)O)NC(=O)CNC(=O)[C@H](CCCNC(=N)N)NC(=O)CNC(=O)[C@H](N)C(C)(C)SSC(C)(C)[C@H](C(N)=O)NC1=O [LXW19, DPen-GRGDdv-DPen] (H-[dPen]GRGD[dD][dV][dPen]-NH2; disulfide 1-8) |
| < 1000 | CC(C)C(=O)N[C@@H]1CSSC[C@H](C(N)=O)NC(=O)[C@@H](C(C)C)NC(=O)[C@@H](CC(=O)O)NC(=O)[C@H](CC(=O)O)NC(=O)CNC(=O)[C@H](CCCNC(=N)N)NC(=O)CNC1=O [LXW76, isobutyryl-cGRGDdvc] (Isobutyryl-[dC]GRGD[dD][dV][dC]-NH2; disulfide 1-8) |
| > 10000 | C#CC[C@H]1NC(=O)[C@@H](CC(=O)O)NC(=O)[C@H](CC(=O)O)NC(=O)CNC(=O)[C@H](CCCNC(=N)N)NC(=O)CN(C)C(=O)[C@@H](N)CSSC[C@@H](C(N)=O)NC1=O [LXW35, C-Sar-RGDd-DPra-C] |
| 1000 to 10000 | CC(C)[C@H]1NC(=O)[C@@H](CC(=O)O)NC(=O)[C@H](CC(=O)O)NC(=O)CNC(=O)[C@H](CCCNC(=N)N)NC(=O)[C@@H](C)NC(=O)[C@H](N)CSSC[C@H](C(N)=O)NC1=O [LXW13, caRGDdvc] (H-[dC][dA]RGD[dD][dV][dC]-NH2; disulfide 1-8) |
| 1000 to 10000 | CC(C)[C@H]1NC(=O)[C@@H](CC(=O)O)NC(=O)[C@H](CC(=O)O)NC(=O)CNC(=O)[C@H](CCCNC(=N)N)NC(=O)CNC(=O)[C@@H](N)CSSC[C@H](C(N)=O)NC1=O [LXW9, CGRGDdvc] (H-CGRGD[dD][dV][dC]-NH2; disulfide 1-8) |
| 1000 to 10000 | C#CC[C@H]1NC(=O)[C@@H](CC(=O)O)NC(=O)[C@H](CC(=O)O)NC(=O)CNC(=O)[C@H](CCCNC(=N)N)NC(=O)CNC(=O)[C@H](N)CSSC[C@H](C(N)=O)NC1=O [LWX17, cGRGDd-DPra-c] |
| 1000 to 10000 | CC[C@@H](C)[C@H]1NC(=O)[C@@H](CC(=O)O)NC(=O)[C@H](CC(=O)O)NC(=O)CNC(=O)[C@H](CCCNC(=N)N)NC(=O)CNC(=O)[C@H](N)CSSC[C@H](C(N)=O)NC1=O [LXW26, cGRGDdic] (H-[dC]GRGD[dD][dI][dC]-NH2; disulfide 1-8) |
| < 1000 | CC(C)[C@@H]1C(=O)N[C@@H](C(N)=O)CSSC[C@@H](N)C(=O)NCC(=O)N[C@@H](CCCNC(=N)N)C(=O)NCC(=O)N[C@@H](CC(=O)O)C(=O)N[C@H](CC(=O)O)C(=O)N1C [LXW22, cGRGDd-D(NMe)Val-c] |
| < 1000 | N=C(N)NCCC[C@@H]1NC(=O)CNC(=O)[C@H](N)CSSC[C@H](C(N)=O)NC(=O)[C@@H](Cc2ccc3ccccc3c2)NC(=O)[C@@H](CC(=O)O)NC(=O)[C@H](CC(=O)O)NC(=O)CNC1=O [LXW65, cGRGDd-DNal2-c] |
| 1000 to 10000 | CCCCC(=O)N[C@@H]1CSSC[C@H](C(N)=O)NC(=O)[C@@H](C(C)C)NC(=O)[C@@H](CC(=O)O)NC(=O)[C@H](CC(=O)O)NC(=O)CNC(=O)[C@H](CCCNC(=N)N)NC(=O)CNC1=O [LXW77, valeryl-cGRGDdvc] (Pentanoyl-[dC]GRGD[dD][dV][dC]-NH2; disulfide 1-8) |
| < 1000 | CC(C)[C@H]1NC(=O)[C@@H](CC(=O)O)NC(=O)[C@H](CC(=O)O)NC(=O)CNC(=O)[C@H](CCCNC(=N)N)NC(=O)CNC(=O)[C@H](NC(=O)CCC(=O)NCCOCCOCCN)CSSC[C@H](C(N)=O)NC1=O [LXW57, (Ebes)-cGRGDdvc] ({NH(CH2CH2O)2CH2CH2NH2-Suc}-[dC]GRGD[dD][dV][dC]-NH2; disulfide 1-8) |
| 1000 to 10000 | CC(C)[C@H]1NC(=O)[C@@H](CC(=O)O)NC(=O)[C@H](CC(=O)O)NC(=O)CNC(=O)[C@H](CCCNC(=N)N)NC(=O)CNC(=O)[C@H](N)CSSC(C)(C)[C@H](C(N)=O)NC1=O [LXW21, cGRGDdv-DPen] (H-[dC]GRGD[dD][dV][dPen]-NH2; disulfide 1-8) |
| < 1000 | CC(C)[C@H]1NC(=O)[C@@H](CC(=O)O)NC(=O)[C@H](CC(=O)O)NC(=O)CNC(=O)[C@H](CCCNC(=N)N)NC(=O)CNC(=O)[C@H](NC(=O)c2ccc(C(F)(F)F)cc2)CSSC[C@H](C(N)=O)NC1=O [LXW85, 4-(trifluoromethyl)benzoyl-cGRGDdvc] ({Benzoyl(4-CF3)}-[dC]GRGD[dD][dV][dC]-NH2; disulfide 1-8) |
| < 1000 | CC(C)[C@H]1NC(=O)[C@@H](CC(=O)O)NC(=O)[C@H](CC(=O)O)NC(=O)CNC(=O)[C@H](CCCNC(=N)N)NC(=O)CNC(=O)[C@H](NC(=O)c2ccc3ccccc3c2)CSSC[C@H](C(N)=O)NC1=O [LXW89, 2-naphthoyl-cGRGDdvc] (2Naphthoyl-[dC]GRGD[dD][dV][dC]-NH2; disulfide 1-8) |

| SMILES | IC50 [nM] |
| --- | --- |
| N=C(N)NCCC[C@@H]1NC(=O)CNC(=O)[C@H](N)CSSC[C@H](C(N)=O)NC(=O)[C@@H](Cc2cccc3ccccc23)NC(=O)[C@@H](CC(=O)O)NC(=O)[C@H](CC(=O)O)NC(=O)CNC1=O [LXW64, cGRGDd-DNal1-c] | < 1000 |

From patent US9073974B2, “RGD-containing cyclic peptides” (The Regents of the University of California, priority 2009, dated 2015)
